The source made the active and inactive calls. The rule behind the calls is not given here.
Columns and labels:
[1] = target: Protease (Human immunodeficiency virus 1) (UniProt Q9YQ12); assay: Inhibition of HIV1 protease dimerization in COS7 cells at 1 uM
Protease = Protease (Human immunodeficiency virus 1, UniProt Q9YQ12); assay: Inhibition of HIV1 protease
[2] = test system: Human immunodeficiency virus 1; assay: Antiviral activity against HIV1 LAI in MT2 cells; assay type: functional, organism-based; conditions: Human immunodeficiency virus 1, LAI

Chain of Protease (Human immunodeficiency virus 1) (Q9YQ12 as listed by the source): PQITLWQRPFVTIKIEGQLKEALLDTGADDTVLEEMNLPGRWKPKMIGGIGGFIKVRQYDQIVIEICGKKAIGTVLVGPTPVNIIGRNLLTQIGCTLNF
Chain of Protease (Q9YQ12 whole entry): as the sequence (Q9YQ12 as listed by the source) above

**Q.** With `CC(C)CN(C[C@@H](O)[C@H](Cc1ccccc1)NC(=O)O[C@@H]1C[C@@H]2CCO[C@@H]2C1)S(=O)(=O)c1ccc(CO)cc1` as the compound, how does the Activity [1] read?
**A.** Active

**Q.** And the Ki (Protease)?
**A.** 0.0035 nM

**Q.** And the IC50 [2]?
**A.** 1.4 nM

**Q.** Which Activity [1] does the source give for `CC(C)CN(C[C@@H](O)[C@H](Cc1ccccc1)NC(=O)O[C@H]1CO[C@H]2OCC[C@H]21)S(=O)(=O)c1ccc(N)cc1` here?
**A.** Active

**Q.** What about the IC50 [2] of the same compound?
**A.** 3.4 nM

**Q.** Which Activity [1] does the source give for `COc1ccc(S(=O)(=O)N(CC(C)C)C[C@@H](O)[C@H](Cc2ccccc2)NC(=O)C[C@H]2CO[C@H]3OCC[C@@H]23)cc1` here?
**A.** Active

**Q.** And the IC50 [2]?
**A.** 480 nM

**Q.** How did the Activity [1] turn out when `Cc1nc(COc2ccc(C[C@H](NC(=O)O[C@H]3CO[C@H]4OCC[C@H]43)[C@H](O)CN(CC(C)C)S(=O)(=O)c3ccc4c(c3)OCO4)cc2)cs1` [BRECANAVIR] was run?
**A.** Active

**Q.** What about the Ki (Protease) of the same compound?
**A.** 0.0068 nM

**Q.** And the IC50 [2]?
**A.** 0.2 nM

**Q.** Which Activity [1] does the source give for `CC(C)CN(C[C@@H](O)[C@H](CSc1ccccc1)NC(=O)O[C@@H]1C[C@@H]2CCO[C@@H]2C1)S(=O)(=O)c1ccc(CO)cc1` here?
**A.** Active

**Q.** What about the Ki (Protease) of the same compound?
**A.** 0.029 nM

**Q.** And the IC50 [2]?
**A.** 5 nM

**Q.** Which results are given for `COc1ccc(S(=O)(=O)N(CC(C)C)C[C@@H](O)[C@H](Cc2ccccc2)NC(=O)O[C@H]2CO[C@H]3OCC[C@H]32)cc1`?
**A.** Activity [1]: Active; IC50 [2]: 0.3 nM

**Q.** How did the IC50 [2] turn out when `CCC[C@@]1(CCc2ccccc2)CC(O)=C([C@H](CC)c2cccc(NS(=O)(=O)c3ccc(C(F)(F)F)cn3)c2)C(=O)O1` was run?
**A.** 100 nM

**Q.** Which Activity [1] does the source give for `CC(C)CN(C[C@@H](O)[C@H](Cc1ccccc1)NC(=O)O[C@H]1CO[C@H]2OCC[C@H]21)S(=O)(=O)c1ccc2c(c1)OCO2` here?
**A.** Active

**Q.** What about the Ki (Protease) of the same compound?
**A.** 0.014 nM

**Q.** What about the IC50 [2] of the same compound?
**A.** 0.4 nM

Source: ChEMBL document CHEMBL1147040, “Potent inhibition of HIV-1 replication by novel non-peptidyl small molecule inhibitors of protease dimerization” (J Biol Chem, 2007)
